Measured values: patent US20260217662A1, “PROCESSES FOR PREPARING TRIAZOLE GLYCOLATE OXIDASE INHIBITORS” (CANTERO THERAPEUTICS, INC., priority 2020, published 2026)

Target: T1, human glycolate oxidase (hGO) (Homo sapiens, UniProt Q9UJM8)
T1 construct: His-tag (6 histidines) (N); made in house; host or cells: E. coli BL21 (DE3)
T1 sequence (Q9UJM8 1-370): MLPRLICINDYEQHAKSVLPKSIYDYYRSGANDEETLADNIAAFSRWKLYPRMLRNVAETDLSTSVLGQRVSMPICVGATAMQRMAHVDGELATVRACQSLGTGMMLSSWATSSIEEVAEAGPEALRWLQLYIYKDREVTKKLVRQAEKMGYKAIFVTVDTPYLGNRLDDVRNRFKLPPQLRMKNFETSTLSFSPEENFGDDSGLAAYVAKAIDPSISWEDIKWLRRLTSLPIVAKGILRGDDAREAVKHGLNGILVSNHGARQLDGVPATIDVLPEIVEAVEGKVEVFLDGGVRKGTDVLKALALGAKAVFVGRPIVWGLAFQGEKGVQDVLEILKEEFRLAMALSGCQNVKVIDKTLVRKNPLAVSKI
Assay: In vitro inhibition of human glycolate oxidase (enzymatic assay, coupled HRP/Trinder reaction)
Type: biochemical
Conditions: recombinant hGO, 40 mM glycolic acid, pH 7, activity at 1 minute, read at 515 nm
Source text: The catalytic reactions used for assaying glycolate oxidase activity in the presence of compounds according to the present disclosure are outlined in FIG. 9. Glycolate oxidase (GO)-catalyzed conversion of glycolate to glyoxylate (top reaction), with the concomitant reduction of the cofactor flavin mononucleotide (FMN), uses molecular oxygen (O2) for recovering its oxidative state, releasing hydrogen peroxide (H2O2). The Trinder reaction (bottom reaction), in which horseradish peroxidase (HRP) uses hydrogen peroxide, 4-aminoantipyrine and a phenol derivative (sulphonated DCIP) to generate a quinoneimine dye that is spectrophotometrically measured.
Human glycolate oxidase (hGO) expression: BL21 (DE3) E. coli transformed with recombinant pET-15b expression vector with the N-terminal His-tag human Hao1 cDNA was grown in LB medium in the presence of 0.1 mg/ml ampicillin. […] Protein were quantified by the bicinchoninic acid (BCA) assay.
Enzymatic assays: Enzymatic activity of hGO was determined in the presence of glycolate as substrate (40 mM glycolic acid) and phosphate buffer (50 mM KPO4, 0.1 mM EDTA, pH 7). The production of glyoxylate was indirectly measured by the quantification of hydrogen peroxide formed during the first oxidation reaction. […] Enzymatic activity was calculated at 1 minute after initiation of the Trinder reaction.

IC50	Compound
< 100 nM	O=C(O)c1nn[nH]c1Oc1ccc(-c2ccc(C3CCC(F)(F)C3)cc2)cc1 (centres unmarked) [Ib-1, 5-((4′-(3,3-difluorocyclopentyl)-[1,1′-biphenyl]-4-yl)oxy)-1H-1,2,3-triazole-4-carboxylic acid]
< 100 nM	O=C(O)c1nn[nH]c1Oc1ccc(-c2ccc(C3CCC(F)(F)CC3)cc2)cc1 [Ic-1, 5-((4′-(4,4-difluorocyclohexyl)-[1,1′-biphenyl]-4-yl)oxy)-1H-1,2,3-triazole-4-carboxylic acid]
